Laboratory results reported in ChEMBL document CHEMBL1909046, “DrugMatrix in vitro pharmacology data”.

How the values were obtained:
[1] = molecular target: Tyrosine-protein kinase Fyn (Homo sapiens, UniProt P06241); experiment: biochemical; assay type: cell-based, Insect cells; conditions: insect cells;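 note: enzymatic inhibition of Fyn kinase activity measured with Poly(Glu:Tyr) as the phosphorylation substrate; in other assays of this panel Not Active means under 50% inhibition at 10 µM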
[2] = DRUGMATRIX: Phosphodiesterase PDE3 enzyme inhibition (substrate: [3H]cAMP + cAMP); assay type: tissue-based, Homo sapiens; conditions: platelet; Not Active = under 50% inhibition at 10 µM
[3] = molecular target: Vascular endothelial growth factor receptor 1 (Homo sapiens, UniProt P17948); experiment: biochemical; assay type: cell-based, HUVEC; conditions: huvec; note: in other assays of this panel Not Active means under 50% inhibition at 10 µM
[4] = molecular target: Tyrosine-protein kinase Lck (Homo sapiens, UniProt P06239); experiment: DRUGMATRIX: Protein Tyrosine Kinase, LCK enzyme inhibition (substrate: Poly(Glu:Tyr)); assay type: cell-based, Insect cells; conditions: insect cells, Not Active = under 50% inhibition at 10 µM
[5] = molecular target: T1, Angiotensin-converting enzyme (Oryctolagus cuniculus, UniProt P12822); assay type: tissue-based, Lung;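 note: enzymatic inhibition of angiotensin-converting enzyme measured with FAPGG as the substrate; in other assays of this panel Not Active means under 50% inhibition at 10 µM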
T1 sequence (P12822 whole entry): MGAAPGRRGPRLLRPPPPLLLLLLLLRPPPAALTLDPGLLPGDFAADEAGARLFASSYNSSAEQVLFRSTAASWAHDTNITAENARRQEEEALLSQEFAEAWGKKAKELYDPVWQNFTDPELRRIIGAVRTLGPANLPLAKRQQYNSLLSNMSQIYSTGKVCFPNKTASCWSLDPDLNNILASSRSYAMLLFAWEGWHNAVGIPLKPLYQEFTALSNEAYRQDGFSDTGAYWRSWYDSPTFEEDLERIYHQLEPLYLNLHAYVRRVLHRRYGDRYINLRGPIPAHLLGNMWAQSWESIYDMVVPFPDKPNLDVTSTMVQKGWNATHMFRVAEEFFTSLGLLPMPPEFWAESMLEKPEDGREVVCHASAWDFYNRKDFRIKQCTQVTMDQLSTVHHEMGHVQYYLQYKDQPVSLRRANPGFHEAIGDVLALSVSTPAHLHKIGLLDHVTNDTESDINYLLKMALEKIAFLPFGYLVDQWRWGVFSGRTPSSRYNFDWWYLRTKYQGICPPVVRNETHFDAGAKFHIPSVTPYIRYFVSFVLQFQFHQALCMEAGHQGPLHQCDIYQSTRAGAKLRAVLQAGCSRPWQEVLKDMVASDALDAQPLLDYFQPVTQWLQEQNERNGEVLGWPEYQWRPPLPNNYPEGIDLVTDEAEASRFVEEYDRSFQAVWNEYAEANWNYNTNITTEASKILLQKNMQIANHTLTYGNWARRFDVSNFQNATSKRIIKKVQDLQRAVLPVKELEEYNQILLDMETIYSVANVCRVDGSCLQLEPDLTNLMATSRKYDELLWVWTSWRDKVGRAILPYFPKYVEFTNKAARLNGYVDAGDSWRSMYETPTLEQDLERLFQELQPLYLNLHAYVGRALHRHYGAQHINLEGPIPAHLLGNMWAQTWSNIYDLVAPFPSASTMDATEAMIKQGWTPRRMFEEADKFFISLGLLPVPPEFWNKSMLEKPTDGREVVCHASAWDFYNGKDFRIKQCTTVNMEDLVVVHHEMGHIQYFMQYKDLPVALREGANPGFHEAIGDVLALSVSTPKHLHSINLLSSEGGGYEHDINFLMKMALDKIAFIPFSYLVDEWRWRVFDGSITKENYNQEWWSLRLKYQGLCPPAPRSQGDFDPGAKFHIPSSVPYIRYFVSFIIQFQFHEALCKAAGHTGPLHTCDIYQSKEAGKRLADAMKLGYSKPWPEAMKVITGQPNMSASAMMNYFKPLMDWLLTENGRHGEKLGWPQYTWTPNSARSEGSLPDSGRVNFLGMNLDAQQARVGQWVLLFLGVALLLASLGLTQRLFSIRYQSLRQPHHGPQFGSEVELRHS

[6] = molecular target: T2, C-X-C chemokine receptor type 2 (Homo sapiens, UniProt P25025); assay type: cell membranes, Membrane; conditions: cho-k1; note: in other assays of this panel Not Active means under 50% inhibition at 10 µM
T2 sequence (P25025 whole entry): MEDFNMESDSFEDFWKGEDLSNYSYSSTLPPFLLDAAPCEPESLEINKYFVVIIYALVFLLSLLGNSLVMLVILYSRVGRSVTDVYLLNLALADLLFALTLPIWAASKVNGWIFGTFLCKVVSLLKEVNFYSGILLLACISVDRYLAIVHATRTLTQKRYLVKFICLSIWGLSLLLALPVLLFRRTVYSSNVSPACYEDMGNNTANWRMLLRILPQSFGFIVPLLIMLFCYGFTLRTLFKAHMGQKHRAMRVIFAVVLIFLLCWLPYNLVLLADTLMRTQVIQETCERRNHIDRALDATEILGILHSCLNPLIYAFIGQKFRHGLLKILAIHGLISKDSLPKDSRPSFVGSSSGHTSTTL

Chain of Tyrosine-protein kinase Lck (P06239 whole entry): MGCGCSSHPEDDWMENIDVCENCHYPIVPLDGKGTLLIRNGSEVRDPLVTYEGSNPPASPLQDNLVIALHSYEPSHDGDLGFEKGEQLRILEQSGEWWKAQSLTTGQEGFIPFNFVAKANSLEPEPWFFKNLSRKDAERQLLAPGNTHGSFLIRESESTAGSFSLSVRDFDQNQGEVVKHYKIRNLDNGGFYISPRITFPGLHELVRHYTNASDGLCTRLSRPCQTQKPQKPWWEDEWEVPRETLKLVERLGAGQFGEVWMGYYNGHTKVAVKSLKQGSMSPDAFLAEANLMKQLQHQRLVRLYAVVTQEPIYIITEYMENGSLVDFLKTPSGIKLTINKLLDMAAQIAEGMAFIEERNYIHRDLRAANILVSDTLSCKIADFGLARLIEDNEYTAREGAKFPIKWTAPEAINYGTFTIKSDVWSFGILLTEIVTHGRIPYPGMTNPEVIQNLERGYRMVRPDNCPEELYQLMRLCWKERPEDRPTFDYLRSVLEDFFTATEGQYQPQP
Chain of Vascular endothelial growth factor receptor 1 (P17948 whole entry): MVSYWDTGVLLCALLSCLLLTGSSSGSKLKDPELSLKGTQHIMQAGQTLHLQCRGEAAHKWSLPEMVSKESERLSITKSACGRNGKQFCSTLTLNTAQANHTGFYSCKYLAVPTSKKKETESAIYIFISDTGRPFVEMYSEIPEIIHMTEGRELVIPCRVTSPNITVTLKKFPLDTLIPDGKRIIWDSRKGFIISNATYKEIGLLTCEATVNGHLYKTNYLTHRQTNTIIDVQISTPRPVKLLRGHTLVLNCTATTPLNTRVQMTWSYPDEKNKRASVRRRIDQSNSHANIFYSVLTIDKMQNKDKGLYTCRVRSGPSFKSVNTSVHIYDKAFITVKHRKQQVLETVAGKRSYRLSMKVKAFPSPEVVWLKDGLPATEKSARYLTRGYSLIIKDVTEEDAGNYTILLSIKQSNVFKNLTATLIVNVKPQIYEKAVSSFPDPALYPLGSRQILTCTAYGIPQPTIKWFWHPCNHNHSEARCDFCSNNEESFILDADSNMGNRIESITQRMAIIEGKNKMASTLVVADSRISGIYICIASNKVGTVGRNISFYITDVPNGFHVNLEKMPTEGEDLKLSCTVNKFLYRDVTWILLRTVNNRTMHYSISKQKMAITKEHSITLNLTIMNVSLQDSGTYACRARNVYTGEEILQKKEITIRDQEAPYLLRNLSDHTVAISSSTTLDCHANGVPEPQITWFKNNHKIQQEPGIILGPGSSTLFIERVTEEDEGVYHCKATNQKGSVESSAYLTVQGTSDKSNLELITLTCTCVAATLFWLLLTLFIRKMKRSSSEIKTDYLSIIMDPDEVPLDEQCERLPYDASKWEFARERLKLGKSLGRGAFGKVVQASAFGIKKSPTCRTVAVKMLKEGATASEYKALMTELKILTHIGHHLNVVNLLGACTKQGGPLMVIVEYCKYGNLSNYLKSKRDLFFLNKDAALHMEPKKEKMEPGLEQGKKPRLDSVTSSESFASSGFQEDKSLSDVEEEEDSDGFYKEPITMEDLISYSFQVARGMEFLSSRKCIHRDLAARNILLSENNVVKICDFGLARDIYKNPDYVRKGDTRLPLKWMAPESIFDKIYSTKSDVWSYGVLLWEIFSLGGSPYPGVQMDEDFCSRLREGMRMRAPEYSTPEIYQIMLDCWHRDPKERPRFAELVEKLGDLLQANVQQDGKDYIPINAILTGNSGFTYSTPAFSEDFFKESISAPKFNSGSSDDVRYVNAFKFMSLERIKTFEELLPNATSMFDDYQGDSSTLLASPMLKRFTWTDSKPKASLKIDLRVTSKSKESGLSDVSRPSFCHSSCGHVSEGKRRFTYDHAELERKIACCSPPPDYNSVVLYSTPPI
Chain of Tyrosine-protein kinase Fyn (P06241 whole entry): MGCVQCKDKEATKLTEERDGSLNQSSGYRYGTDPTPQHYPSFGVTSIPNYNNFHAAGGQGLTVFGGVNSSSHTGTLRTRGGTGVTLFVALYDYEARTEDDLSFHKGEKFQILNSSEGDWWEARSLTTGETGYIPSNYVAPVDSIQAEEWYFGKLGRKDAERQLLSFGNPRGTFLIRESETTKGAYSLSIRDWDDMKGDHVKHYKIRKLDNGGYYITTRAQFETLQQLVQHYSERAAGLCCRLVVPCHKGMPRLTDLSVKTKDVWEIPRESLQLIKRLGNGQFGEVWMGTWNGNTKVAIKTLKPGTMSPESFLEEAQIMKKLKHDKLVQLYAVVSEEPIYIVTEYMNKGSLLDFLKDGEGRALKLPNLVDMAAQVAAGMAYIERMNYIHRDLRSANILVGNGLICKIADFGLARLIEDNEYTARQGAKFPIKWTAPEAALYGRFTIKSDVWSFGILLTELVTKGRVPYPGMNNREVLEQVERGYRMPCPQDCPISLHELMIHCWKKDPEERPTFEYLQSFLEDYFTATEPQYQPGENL

AURANOFIN
1200 nM: IC50 ([1]; read-out: IC50)
Not Active: IC50 [2] | Ki [2] | IC50 [3] | Ki [3] | IC50 [4] | Ki [4] | IC50 [5] | Ki [5] | IC50 [6] | Ki [6]

GADOPENTETATE DIMEGLUMINE
Not Active: IC50 [1] | Ki [1] | IC50 [2] | Ki [2] | IC50 [3] | Ki [3] | IC50 [4] | Ki [4] | IC50 [5] | Ki [5] | IC50 [6] | Ki [6]

GENTAMICIN
Not Active: IC50 [1] | Ki [1] | IC50 [2] | Ki [2] | IC50 [3] | Ki [3] | IC50 [4] | Ki [4] | IC50 [5] | Ki [5] | IC50 [6] | Ki [6]

GRAMICIDIN
1090 nM: IC50 ([4]; read-out: IC50)
3330 nM: IC50 ([1]; read-out: IC50)
Not Active: IC50 [2] | Ki [2] | IC50 [3] | Ki [3] | IC50 [5] | Ki [5] | IC50 [6] | Ki [6]

NYSTATIN
Not Active: IC50 [1] | Ki [1] | IC50 [2] | Ki [2] | IC50 [3] | Ki [3] | IC50 [4] | Ki [4] | IC50 [5] | Ki [5] | IC50 [6] | Ki [6]
